Measurements taken from patent publication US9113629B2, “4-amino-6-(4-substituted-phenyl)-picolinates and 6-amino-2-(4-substituted-phenyl)-pyrimidine-4-carboxylates and their use as herbicides” (DOW AGROSCIENCES LLC, priority 2013, dated 2015).
Read-outs that look alike come from different tables or passages of the source.

Legend:
Test in all cases: Post-emergent Test III, herbicidal activity in wheat and barley
Assay type in all cases: in vivo
[1] = tested on: MATSS: scented mayweed (Matricaria chamomilla), pineappleweed (Matricaria matricarioides); settings: for pest or weed control at 35 g/ha: 35 g ai/ha; for pest or weed control at 70 g/ha: 70 g ai/ha; for GR50 MATSS: dose for 50 percent growth reduction; for GR50 MATSS / GR80 MATSS: probit analysis; for GR80 MATSS: dose for 80 percent growth reduction
Protocol: (§1) Post-emergent Test III. Seeds of the desired test plant species were planted in Sun Gro MetroMix® 306 planting mixture, which typically has a pH of 6.0 to 6.8 and an organic matter content of about 30 percent, in plastic pots with a surface area of 103.2 square centimeters (cm^2). When required to ensure good germination and healthy plants, a fungicide treatment and/or other chemical or physical treatment was applied. The plants were grown for 7-36 days (d) in a greenhouse with an approximate 14 hour (h) photoperiod which was maintained at about 18° C. during the day and 17° C. during the night. Nutrients and water were added on a regular basis and supplemental lighting was provided with overhead metal halide 1000-Watt lamps as necessary. The plants were employed for testing when they reached the second or third true leaf stage.
(§2) A weighed amount, determined by the highest rate to be tested, of each test compound was placed in a 25 mL glass vial and was dissolved in 4 mL of a 97:3 v/v mixture of acetone and DMSO to obtain concentrated stock solutions. […] The concentrated stock solutions obtained were diluted with 20 mL of an aqueous mixture containing acetone, water, isopropyl alcohol, DMSO, Agri-Dex crop oil concentrate, and X-77 surfactant in a 48:39:10:1.5:1.5:0.02 v/v ratio to obtain spray solutions containing the highest application rates. Additional application rates were obtained by serial dilution of 12 mL of the high rate solution into a solution containing 2 mL of 97:3 v/v mixture of acetone and DMSO and 10 mL of an aqueous mixture containing acetone, water, isopropyl alcohol, DMSO, Agri-Dex crop oil concentrate, and X-77 surfactant in a 48:39:10:1.5:1.5:0.02 v/v ratio to obtain ½×, ¼×, ⅛× and 1/16× rates of the high rate. Compound requirements are based upon a 12 mL application volume at a rate of 187 liters per hectare (L/ha). Formulated compounds were applied to the plant material with an overhead Mandel track sprayer equipped with 8002E nozzles calibrated to deliver 187 L/ha over an application area of 0.503 square meters at a spray height of 18 inches (43 cm) above the average plant canopy height. Control plants were sprayed in the same manner with the solvent blank.
(§3) The treated plants and control plants were placed in a greenhouse as described above and watered by subirrigation to prevent wash-off of the test compounds. After 21 d, the condition of the test plants as compared with that of the untreated plants was determined visually and scored on a scale of 0 to 100 percent where 0 corresponds to no injury and 100 corresponds to complete kill.
(§4) By applying the well-accepted probit analysis as described by J. Berkson in Journal of the American Statistical Society, 48, 565 (1953) and by D. Finney in “Probit Analysis” Cambridge University Press (1952), herbicidal injury of a specific compound at various rates can be used to calculate GR20, GR50, GR80 and GR90 values, which are defined as growth reduction factors that correspond to the effective dose of herbicide required to provide plant growth reduction (GR) of 20 percent, 50 percent, 80 percent and 90 percent, respectively. Probit analysis was applied to data collected from multiple dose rates of individual compounds utilizing the procedures explained in the following examples. The analysis of those dose rates is captured in the following tables.

[2] = tested on: HORSS: barley, including spring and winter (Hordeum vulgare); settings: for pest or weed control at 35 g/ha: 35 g ai/ha; for pest or weed control at 70 g/ha: 70 g ai/ha; for GR20 HORSS: probit analysis
Protocol: as §1, §2, §3, §4

[3] = tested on: TRZSS: wheat, including spring and winter (Triticum aestivum); settings: for GR20 TRZSS: probit analysis; for pest or weed control at 35 g/ha: 35 g ai/ha; for pest or weed control at 70 g/ha: 70 g ai/ha
Protocol: as §1, §2, §3, §4

[4] = tested on: KCHSC: kochia (Kochia scoparia); settings: for pest or weed control at 35 g/ha: 35 g ai/ha; for pest or weed control at 70 g/ha: 70 g ai/ha; for GR50 KCHSC: dose for 50 percent growth reduction; for GR50 KCHSC / GR80 KCHSC: probit analysis; for GR80 KCHSC: dose for 80 percent growth reduction
Protocol: as §1, §2, §3, §4

[5] = Matricaria chamomilla, post-emergence, 504 h, Table 8, post-emergent, 21 d, read-out: Visual Growth Reduction (%) 21 Days After Application MATSS
[6] = Hordeum vulgare, post-emergence, 504 h, Table 8, post-emergent, 21 d, read-out: Visual Growth Reduction (%) 21 Days After Application HORSS
[7] = Table 8, dose for 20 percent growth reduction, 21 d
[8] = Triticum aestivum, post-emergence, 504 h, Table 8, post-emergent, 21 d, read-out: Visual Growth Reduction (%) 21 Days After Application TRZSS
[9] = Bassia scoparia, post-emergence, 504 h, Table 8, post-emergent, 21 d, read-out: Visual Growth Reduction (%) 21 Days After Application KCHSC
[10] = Matricaria chamomilla, post-emergence, 504 h, 21 days after application, read-out: Visual Gorowth Reduction (%) 21 days After Application MATSS
[11] = Hordeum vulgare, post-emergence, 504 h, 21 days after application, read-out: Visual Gorowth Reduction (%) 21 days After Application HORSS
[12] = dose for 20 percent growth reduction (crop), 21 days after application
[13] = Triticum aestivum, post-emergence, 504 h, 21 days after application, read-out: Visual Gorowth Reduction (%) 21 days After Application TRZSS
[14] = Bassia scoparia, post-emergence, 504 h, 21 days after application, read-out: Visual Gorowth Reduction (%) 21 days After Application KCHSC

SMILES	pest or weed control at 35 g/ha [1, 5]	pest or weed control at 70 g/ha [1, 5]	GR50 MATSS ([1]; Table 8, 21 d)	GR80 MATSS ([1]; Table 8, 21 d)	pest or weed control at 35 g/ha [2, 6]	pest or weed control at 70 g/ha [2, 6]	GR20 HORSS [2, 7]	GR20 TRZSS [3, 7]	pest or weed control at 35 g/ha [3, 8]	pest or weed control at 70 g/ha [3, 8]	pest or weed control at 35 g/ha [4, 9]	pest or weed control at 70 g/ha [4, 9]	GR50 KCHSC ([4]; Table 8, 21 d)	GR80 KCHSC ([4]; Table 8, 21 d)	other results
COC(=O)c1nc(-c2ccc(I)c(F)c2)c(C)c(N)c1Cl [Compound 79, Methyl 4-amino-3-chloro-6-(3-fluoro-4-iodophenyl)-5-methylpicolinate]	75 to 84%	85 to 94%	13 g ai/ha	46 g ai/ha	85 to 94%	85 to 94%	1 g ai/ha	2 g ai/ha	75 to 84%	85 to 94%	60 to 74%	75 to 84%	24 g ai/ha	70 g ai/ha	–
Nc1c(Cl)c(C(=O)O)nc(-c2ccc(I)c(F)c2)c1Cl [Compound 145, 4-Amino-3,5-dichloro-6-(3-fluoro-4-iodophenyl)picolinic acid]	95 to 100%	95 to 100%	3 g ai/ha	10 g ai/ha	85 to 94%	95 to 100%	1 g ai/ha	1 g ai/ha	85 to 94%	85 to 94%	60 to 74%	60 to 74%	37 g ai/ha	112 g ai/ha	pest or weed control at 140 g/ha ([1]; Matricaria chamomilla, post-emergence, 504 h, Table 8, 140 g ai/ha, post-emergent, 21 d, read-out: Visual Growth Reduction (%) 21 Days After Application MATSS): 95 to 100%; pest or weed control at 140 g/ha ([2]; Hordeum vulgare, post-emergence, 504 h, Table 8, 140 g ai/ha, post-emergent, 21 d, read-out: Visual Growth Reduction (%) 21 Days After Application HORSS): 95 to 100%; pest or weed control at 140 g/ha ([3]; Triticum aestivum, post-emergence, 504 h, Table 8, 140 g ai/ha, post-emergent, 21 d, read-out: Visual Growth Reduction (%) 21 Days After Application TRZSS): 85 to 94%; pest or weed control at 140 g/ha ([4]; Bassia scoparia, post-emergence, 504 h, Table 8, 140 g ai/ha, post-emergent, 21 d, read-out: Visual Growth Reduction (%) 21 Days After Application KCHSC): 75 to 84%
Nc1cc(-c2cc(F)c(Br)cc2F)nc(C(=O)O)c1Cl [Compound 3]	95 to 100%	95 to 100%	4 g ai/ha	11 g ai/ha	85 to 94%	95 to 100%	1 g ai/ha	1 g ai/ha	85 to 94%	85 to 94%	95 to 100%	95 to 100%	2 g ai/ha	8 g ai/ha	–
Nc1c(F)c(-c2cc(F)c(I)cc2F)nc(C(=O)O)c1Cl [Compound 69]	–	–	–	–	–	–	–	–	–	–	–	–	–	–	pest or weed control at 35 g/ha [1, 10]: 75 to 84%; pest or weed control at 70 g/ha [1, 10]: 85 to 94%; GR50 MATSS ([1]; 21 days after application): 5 g ai/ha; GR80 MATSS ([1]; 21 days after application): 29 g ai/ha; pest or weed control at 35 g/ha [2, 11]: 85 to 94%; pest or weed control at 70 g/ha [2, 11]: 95 to 100%; GR20 HORSS [2, 12]: 1 g ai/ha; pest or weed control at 35 g/ha [3, 13]: 85 to 94%; pest or weed control at 70 g/ha [3, 13]: 85 to 94%; GR20 TRZSS [3, 12]: 1 g ai/ha; pest or weed control at 35 g/ha [4, 14]: 85 to 94%; pest or weed control at 70 g/ha [4, 14]: 85 to 94%; GR50 KCHSC ([4]; 21 days after application): 5 g ai/ha; GR80 KCHSC ([4]; 21 days after application): 19 g ai/ha
Nc1cc(-c2ccc(I)cc2F)nc(C(=O)O)c1Cl [Compound 124]	75 to 84%	85 to 94%	–	32 g ai/ha	85 to 94%	95 to 100%	1 g ai/ha	1 g ai/ha	85 to 94%	85 to 94%	85 to 94%	85 to 94%	3 g ai/ha	29 g ai/ha	–
COC(=O)c1nc(-c2ccc(Br)c(F)c2)nc(N)c1OC [Compound 171, Methyl 6-amino-2-(4-bromo-3-fluorophenyl)-5-methoxypyrimidine-4-carboxylate]	30 to 44%	30 to 44%	>140 g ai/ha	>140 g ai/ha	45 to 59%	60 to 74%	20 g ai/ha	11 g ai/ha	75 to 84%	85 to 94%	85 to 94%	95 to 100%	–	23 g ai/ha	–
